In patent publication US8188139B2, “Heterocyclic-substituted phenyl methanones” (Hoffman-La Roche Inc., priority 2005, dated 2012):

Target: T1, mGlyT-1b (Mus musculus, UniProt P28571)
T1 construct: host or cells: Flp-in-CHO
T1 sequence (P28571 1-651 isoform P28571-2): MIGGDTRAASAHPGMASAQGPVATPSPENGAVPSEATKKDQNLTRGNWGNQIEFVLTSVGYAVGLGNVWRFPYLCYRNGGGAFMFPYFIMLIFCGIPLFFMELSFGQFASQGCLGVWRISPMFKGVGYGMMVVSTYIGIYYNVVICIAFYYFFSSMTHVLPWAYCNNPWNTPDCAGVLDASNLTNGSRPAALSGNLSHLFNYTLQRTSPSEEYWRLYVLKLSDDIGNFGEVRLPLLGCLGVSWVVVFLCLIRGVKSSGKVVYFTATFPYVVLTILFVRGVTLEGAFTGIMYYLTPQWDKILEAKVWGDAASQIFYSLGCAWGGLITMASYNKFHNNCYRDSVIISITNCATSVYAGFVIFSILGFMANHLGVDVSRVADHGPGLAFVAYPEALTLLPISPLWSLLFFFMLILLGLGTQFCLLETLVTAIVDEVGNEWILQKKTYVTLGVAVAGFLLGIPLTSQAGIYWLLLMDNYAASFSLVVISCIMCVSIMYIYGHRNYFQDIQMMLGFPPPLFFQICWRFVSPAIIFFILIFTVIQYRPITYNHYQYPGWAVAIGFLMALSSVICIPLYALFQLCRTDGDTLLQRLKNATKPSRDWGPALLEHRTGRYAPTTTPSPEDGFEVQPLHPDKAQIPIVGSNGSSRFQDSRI
Assay: Glycine uptake inhibition assay (mGlyT-1b)
Format: cell-based
Conditions: inhibition of [3H]-glycine uptake in Flp-in-CHO cells transfected with mGlyT-1b cDNA; 20 min preincubation at 22° C.; read-out: IC50 (μM) at GlyT-1
In short: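 Flp-in CHO cells stably expressing mouse GlyT-1b were preincubated with inhibitor (concentration range) for 20 min at 22° C. in pH 7.4 uptake buffer; nonspecific uptake defined with 10 mM glycine. [3H]-glycine 60 nM plus 25 μM unlabelled glycine was then added; cell-associated radioactivity counted by scintillation and IC50 derived.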

Point of comparison: `C[C@H](Oc1ccc(S(C)(=O)=O)cc1C(=O)N1Cc2cc(Cl)c(OC3CCOCC3)cc2C1)C(F)(F)F` [Example 375, [5-Chloro-6-(tetrahydro-pyran-4-yloxy)-1,3-dihydro-isoindol-2-yl]-[5-methanesulfonyl-2-((S)-2,2,2-trifluoro-1-methyl-ethoxy)-phenyl]-methanone], IC50 0.015 µM. Against it:
- C[C@H](Oc1ccc(S(C)(=O)=O)cc1C(=O)N1Cc2ccc(OCCC(F)(F)F)cc2C1)C(F)(F)F [Example 370, [5-Methanesulfonyl-2-((S)-2,2,2-trifluoro-1-methyl-ethoxy)-phenyl]-[5-(3,3,3-trifluoro-propoxy)-1,3-dihydro-isoindol-2-yl]-methanone] — 3.1-fold higher, 0.047 µM
- C[C@H](Oc1ccc(S(C)(=O)=O)cc1C(=O)N1Cc2cc(F)c(N3CCOCC3)cc2C1)C(F)(F)F [Example 371, (5-Fluoro-6-morpholin-4-yl-1,3-dihydro-isoindol-2-yl)-[5-methanesulfonyl-2-((S)-2,2,2-trifluoro-1-methyl-ethoxy)-phenyl]-methanone] — 2.5-fold lower, 0.006 µM
- CS(=O)(=O)c1ccc(OCC(F)(F)C(F)(F)F)c(C(=O)N2Cc3cc(F)c(N4CCOCC4)cc3C2)c1 [Example 372, (5-Fluoro-6-morpholin-4-yl-1,3-dihydro-isoindol-2-yl)-[5-methanesulfonyl-2-(2,2,2,3,3-pentafluoropropoxy)-phenyl]-methanone] — 3.8-fold lower, 0.004 µM
- CC(C)Oc1ccc(S(C)(=O)=O)cc1C(=O)N1Cc2ccc(OC3CCOCC3)cc2C1 [Example 373, (2-Isopropoxy-5-methanesulfonyl-phenyl)-[5-(tetrahydro-pyran-4-yloxy)-1,3-dihydro-isoindol-2-yl]-methanone] — the same, 0.015 µM
- CS(=O)(=O)c1ccc(OCC(F)(F)C(F)(F)F)c(C(=O)N2Cc3ccc(OC4CCOCC4)cc3C2)c1 [Example 374, [5-Methanesulfonyl-2-(2,2,3,3,3-pentafluoro-propoxy)-phenyl]-[5-(tetrahydro-pyran-4-yloxy)-1,3-dihydro-isoindol-2-yl]-methanone] — 5-fold lower, 0.003 µM
- CC(C)Oc1ccc(S(C)(=O)=O)cc1C(=O)N1Cc2cc(Cl)c(OC3CCOCC3)cc2C1 [Example 376, [5-Chloro-6-(tetrahydro-pyran-4-yloxy)-1,3-dihydro-isoindol-2-yl]-(2-isopropoxy-5-methanesulfonyl-phenyl)-methanone] — within 1.5-fold, 0.016 µM
- C[C@H](Oc1ccc(S(C)(=O)=O)cc1C(=O)N1Cc2cc(F)c(OC3CCOCC3)cc2C1)C(F)(F)F [Example 377, [5-Fluoro-6-(tetrahydro-pyran-4-yloxy)-1,3-dihydro-isoindol-2-yl]-[5-methanesulfonyl-2-((S)-2,2,2-trifluoro-1-methyl-ethoxy)-phenyl]-methanone] — 2.1-fold lower, 0.007 µM
- CC(C)Oc1ccc(S(C)(=O)=O)cc1C(=O)N1Cc2cc(F)c(OC3CCOCC3)cc2C1 [Example 378, [5-Fluoro-6-(tetrahydro-pyran-4-yloxy)-1,3-dihydro-isoindol-2-yl]-(2-isopropoxy-5-methanesulfonyl-phenyl)-methanone] — 2.3-fold higher, 0.035 µM
- CS(=O)(=O)c1ccc(OCC(F)(F)C(F)(F)F)c(C(=O)N2Cc3cc(F)c(OC4CCOCC4)cc3C2)c1 [Example 379, [5-Fluoro-6-(tetrahydro-pyran-4-yloxy)-1,3-dihydro-isoindol-2-yl]-[5-methanesulfonyl-2-(2,2,3,3,3-pentafluoro-propoxy)-phenyl]-methanone] — 2.1-fold lower, 0.007 µM
- CS(=O)(=O)c1ccc(OCC(F)(F)C(F)(F)F)c(C(=O)N2Cc3cc(Cl)c(OC4CCOCC4)cc3C2)c1 [Example 380, [5-Chloro-6-(tetrahydro-pyran-4-yloxy)-1,3-dihydro-isoindol-2-yl]-[5-methanesulfonyl-2-(2,2,3,3,3-pentafluoro-propoxy)-phenyl]-methanone] — 3-fold lower, 0.005 µM
- C[C@H](Oc1ccc(S(C)(=O)=O)cc1C(=O)N1Cc2ccc(-c3ccc(F)cc3)nc2C1)C(F)(F)F [Example 382, [2-(4-Fluoro-phenyl)-5,7-dihydro-pyrrolo[3,4-b]pyridin-6-yl]-[5-methanesulfonyl-2-((S)-2,2,2-trifluoro-1-methyl-ethoxy)-phenyl]-methanone] — 1.6-fold higher, 0.024 µM
